The test system of one data set is GFAP. Put plainly: GFAP in vivo toxicity assay (ddPCR of Gfap mRNA after intravitreal injection). The following applies: 5 days, mouse; for GFAP score (± SD): intravitreal 1.6 ug per eye, Gfap mRNA normalised to housekeeping genes. An excerpt:
Glial fibrillary acidic protein (GFAP) is an intermediate-filament cytoskeletal protein. Levels of GFAP are strongly influenced by injury or stress in some cell types and GFAP expression has become an important marker of injury in the central nervous system. In the eye, Muller glia cells normally express low levels of GFAP which increases considerably following retinal injury.
Expression of GFAP mRNA was quantified via amplification of cDNA obtained as part of the in vivo Smn efficacy assay described above. ddPCR was performed using BioRad droplet generator and reader (QX200 DG8) and thermocyclers (T100), specific probes for murine Gfap (dMmuCPE5116126) and housekeeping genes Gapdh, Eef1a1 and Rp127 (dMmuCPE5195283, dMmuCPE5101732 and dMmuCPE5197083) as well as ddPCR Master mix for Probes (#1863024) and other ddPCR specific consumables from BioRad (#1863005, 12001925, 1863004, 1864007).
Assay results were obtained by BioRad ddPCR software in copies/uL. This was then normalised to housekeeping genes for comparison across experiments.

A further data set relates to Smn gene exon 7. Put plainly: In vivo Smn efficacy assay (IVT administration), exon-7 skipping in ocular tissues. The following applies: mouse; for Percent exon7-skipped SMN1 transcript (± SD): intravitreal 1.6 ug per eye. The source says:
The in vitro SMN1 efficacy assay described in Example 1 is equally applicable to the in vivo setting, given the ubiquitous distribution of the Smn gene in the mouse body, Smn being the mouse orthologue of the human SMN1. The use of natural L-peptides is undesirable in the in vivo setting, due to presence of a vast array of proteases in the body. To adequately assess the peptide's cell-penetrating capacity, peptides were synthesized as either mixed-L/D amino acid containing peptides, where all basic residues were D-amino acids, or as full-D amino acid containing peptides. Both approaches have been established to protect peptides from proteolytic degradation during systemic administration into animals.
The ability of CPP-PMOs to deliver the Smn cargo in vivo to the RPE cell later in the eye was assessed by administration into the vitreous humor of mice and measuring the change in Smn transcript levels in the retina, RPE and choroid cell layers after 5, 7, 21 and 28 days. The CPP of the present invention (SEQ ID NO: 1) and control CPP Pip6a (SEQ ID NO: 3), conjugated to an Smn PMO (SEQ ID NO: 2), were administered by intravitreal injection at 1.6 ug (0.5 ul volume) per eye. At the desired time point post treatment, the animals were culled and eyes were dissected, tissue layers homogenised and RNA extracted using the same protocol as per Example 1.
The efficiency of delivery and function to the various organs was determined by measuring the change in Smn RNA transcript from full-length to an exon-7 skipped fragment (D7-Smn) RNA transcript, using RNA extraction, cDNA generation and PCR using Smn-specific primers. Efficiency was interpreted by the higher the percentage D7-Smn transcript, the better the delivery to the tissue by the CPP.
Exon skipping assays and RT-PCR detection were performed according to published protocols (Mann et al 2002, Gene Med, 4, 644-654).
Mice (C576/6; age 7 weeks) were sourced from Australian BioResources (ABR). Selected CPP-PMOs were injected into the vitreous at 1.6 ug (0.5 ul) per eye, with one to three mice per treatment group.
48 h post-treatment, mice were culled, and the following ocular tissues harvested; retina, RPE layer or RPE/choroid combined. The tissues were homogenised, and RNA was obtained using commercial RNA extraction kits according to manufacturer's protocol (Bio-Rad Aurum total RNA 96 kit; Quantify RNA yield; Quant-iT RNA BR kit).
Extracted RNA was purified, quantified and then diluted to 10 ng/ul. cDNA was produced using a commercial reverse transcription kit according to the manufacturers protocol (BioRad iScript). The produced cDNA was used as a template with primers designed to amplify region of interest, to amplify the DNA. The efficacy of exon skipping was determined by quantifying full length (FL Smn) and exon-7 skipped fragment (D7-Smn) of the Smn gene (LC-GX Nucleic Acid Analyzer) and calculating a percentage. The higher the percentage of D7-Smn DNA, the greater the CPP delivery efficiency.

Another data set deals with exon 7 of the SMN1 gene. Put plainly: In vitro SMN1 efficacy assay (exon-7 skipping, ARPE-19 cells). The following applies: for Percent exon7-skipped SMN1 transcript (± SD): 48 h post treatment. In kind it is cell-based, human. The method, then: Potential CPP peptides were linked to a […] that targets exon 7 of the SMN1 gene (Flynn et al 2018), using strain-promoted (SPAAC) click chemistry (Agard et al 2004, Dommerholt et al. 2016). Peptide-PMO conjugates were incubated on ARPE-19 cells for 2 days in full media. Efficacy of internalization was measured by the degree of exon7 skipping in the SMN1 gene RNA transcript through RNA extraction. Peptide-PMOs with % d7 transcript higher than the PMO treatment alone were considered CPPs.
Using the SMN1 gene, we built an exon-skipping assay targeting the SMN1 gene (Flynn et al 2018) at exon-7 using a phosphorodiamidate morpholino oligonucleotide (PMO) conjugated to different CPPs. This assay was used to identify CPPs that could efficiently deliver PMO cargo to the nucleus and effect exon-skipping of SMN1. Efficiency of delivery and function was determined by measuring the change in D7-SMN1 RNA transcript, using RNA extraction, cDNA generation and PCR using SMN1-specific primers. Efficiency was interpreted by the higher the percentage D7-SMN1 transcript, the better the delivery to the nucleus by the CPP.
Exon skipping assays and PCR detection were performed according to published protocols (Mann et al 2002, Gene Med, 4, 644-654).
Retinal pigment epithelial cells (ARPE-19) immortalized cells were treated with various concentrations (4 uM, 2 uM, 1 uM, in duplicate) of CPP-PMO conjugate and SMN1 transcript levels assessed 48 h post treatment by RNA extraction and purification, followed by cDNA generation and PCR.
(§1) Cells were seeded in 24-well plates (ARPE-19, 2.5×10^4 cells/well) in complete medium (DMEM/F12 1:1, 10% FCS; 10 mM HEPES, 1× GlutaMAX™, Pen/Strep 100 u/ml; Gibco, Thermo Fisher Scientific, Waltham, Mass., USA). Cells were incubated overnight (37° C., 5% CO2) to allow for cell adherence. On the day of the assay, media was aspirated and replaced with CPP-PMO or PMO only diluted in treatment media (DMEM/F12 1:1, 10% FCS; 10 mM HEPES, 1× GlutaMAX™, Pen/Strep 100 u/ml; Gibco, Thermo Fisher Scientific, Waltham, Mass., USA), followed by incubation (37° C., 5% CO2) for 24 h. Fresh media 1:1 was added the following day and cells returned to the incubator for a further 24 h.
48 h post-treatment, the cell media was carefully aspirated, and cells rinsed with PBS. RNA from the treated cells was obtained using commercial RNA extraction kits according to manufacturer's protocol (Bio-Rad Aurum total RNA 96 kit; Quantify RNA yield; Quant-iT RNA BR kit).
Extracted RNA was purified, quantified and then diluted to 10 ng/ul. cDNA was produced using a commercial reverse transcription kit according to the manufacturers protocol (BioRad iScript). The produced cDNA was used as a template with primers designed to amplify region of interest, to amplify the DNA. The efficacy of exon skipping was determined by quantifying full length (FL SMN1) and exon-7 skipped fragment (D7-SMN1) of the SMN1 gene (LC-GX Nucleic Acid Analyzer) and calculating a percentage. The higher the percentage of D7-SMN1 DNA, the greater the CPP delivery efficiency

The subject of the next data set is ARPE-19 cells. As to the kind of experiment: In vitro SMN1 viability assay (CellTiter-Glo). The format is cell-based. The following applies: for Percent Mean Viability (± SD): 48 h. The protocol:
as §1, with “96-well” for “24-well”, “4×10^3” for “2.5×10^4”, “USA) at various concentrations (32, 16, 8, 4, 2, and 1 uM),” for “USA),”
48 h post-treatment, viability of the cells was measured using the commercial CellTiter-Glo® Luminescent Cell Viability Assay (Promega, Australia). In brief the CellTiter-Glo reagent lyses the cells and generates a luminescent signal that is proportional to the amount of ATP present, which in turn is directly proportional to the number of live cells present in culture. All assays were conducted with a known cytotoxic agent, melittin (Renata et al. 2007), and cell only control. Cell viability was used to determine the level of toxicity caused by the CPP-PMO conjugates, where high viability equates to low toxicity, and low viability with high toxicity, respectively.
Background: In ATP-based viability assays light output follows the ATP content of the culture.

On to “ACTTTCCTTCTTTTTTATTTTGTCT (PMO, 5' cyclooctyne handle, chemistry not fully specified; listed as Homo sapiens) [SEQ ID NO: 2, phosphorodiamidate morpholino oligonucleotide (PMO) targeting exon 7 of SMN1, with 5' cyclooctyne handle; unconjugated cargo control]”, for which the “GFAP score (± SD)” value with GFAP is listed as 0.0262. Also, the “Percent exon7-skipped SMN1 transcript (± SD)” value in the data set with Smn gene exon 7 (RPE/choroid, 5 days) is recorded as 0.00%; with Smn gene exon 7 (RPE/choroid, 7 days), 0.00%; in the data set on Smn gene exon 7 (retina, 5 days), 0.00%; in the data set with Smn gene exon 7 (retina, 28 days), 0.77%; in the data set on exon 7 of the SMN1 gene (1 uM), 16.59 (± 4.07) Percent; with exon 7 of the SMN1 gene (2 uM), 17.35 (± 4.97) Percent. Also, the “Percent exon7-skipped SMN1 transcript (± SD)” value in the data set with exon 7 of the SMN1 gene (4 uM) is given as 18.34 (± 5.99) Percent. Moreover, the “Percent Mean Viability (± SD)” value in the data set with ARPE-19 cells (2 uM) was found to be 99.41%; in the data set with ARPE-19 cells (4 uM), 100.01%; in the data set with ARPE-19 cells (8 uM), 99.11%; with ARPE-19 cells (16 uM), 97.42%; in the data set with ARPE-19 cells (32 uM), 93.61%.
As for “RXRRBRRXRYQFLIRXRBRXRB[azk]ACTTTCCTTCTTTTTTATTTTGTCT [SEQ ID NO: 3[azk]2]”, in the data set with GFAP, the “GFAP score (± SD)” value stood at 0.1637. The “Percent exon7-skipped SMN1 transcript (± SD)” value in the data set with Smn gene exon 7 (RPE/choroid, 5 days) is given as 9.94%; with Smn gene exon 7 (RPE/choroid, 7 days), 6.70%; with Smn gene exon 7 (retina, 5 days), 21.66%; in the data set with Smn gene exon 7 (retina, 28 days) it was 3.39%.
With “rrsrtaraGrpGrnssrpsapr[azk]ACTTTCCTTCTTTTTTATTTTGTCT (chain 1 RRSRTARAGRPGRNSSRPSAPR; chain 2 actttccttcttttttattttgtct; azidolysine SPAAC click linkage; listed as Homo sapiens) [SEQ ID NO: 1[azk]2]”, the “GFAP expression in vivo (in words)” value in the data set with GFAP (intravitreal) was “very little GFAP expression”. Besides, the “GFAP score (± SD)” value in the data set on GFAP came to 0.0324. Moreover, the “Percent exon7-skipped SMN1 transcript (± SD)” value in the data set on Smn gene exon 7 (RPE/choroid, 5 days) was 13.05%; in the data set on Smn gene exon 7 (RPE/choroid, 7 days), 12.22%; with Smn gene exon 7 (retina, 5 days), 19.61%; in the data set on Smn gene exon 7 (retina, 28 days) it was 13.71%; with exon 7 of the SMN1 gene (1 uM), 19.44 (± 3.82) Percent; in the data set on exon 7 of the SMN1 gene (2 uM) it was 21.38 (± 2.10) Percent. For the same substance, the “Percent exon7-skipped SMN1 transcript (± SD)” value in the data set with exon 7 of the SMN1 gene (4 uM) is 29.99 (± 3.96) Percent. Further, the “Truncated D7-Smn transcript in vivo compared with Smn PMO alone (in words)” value in the data set with Smn gene exon 7 (intravitreal, RPE/choroid and retina) is “creates more truncated D7-Smn transcript than the Smn PMO alone”. Also, the “Efficiency in inducing SMN1 exon-skipping relative to SMN1 PMO only treatment” value with exon 7 of the SMN1 gene (2 uM) turned out to be 1.2 fold. Moreover, the “Percent Mean Viability (± SD)” value with ARPE-19 cells (2 uM) worked out at 102.61%; in the data set on ARPE-19 cells (4 uM), 105.23%; in the data set on ARPE-19 cells (8 uM), 103.34%; in the data set on ARPE-19 cells (16 uM) it was 102.52%; with ARPE-19 cells (32 uM), 98.20%. Besides, the “Cell viability relative to PMO alone (less deleterious)” value in the data set on ARPE-19 cells (32 uM for 48 hours) is recorded as 1.05 fold.
